Measurements published in ChEMBL document CHEMBL1157539, “Thousands of chemical starting points for antimalarial lead identification” (Nature, 2010).

What follows are molecules tested on Plasmodium falciparum (assay: GSK_TCMDC: Inhibition of Plasmodium falciparum 3D7 in whole erythrocytes, using parasite LDH activity as an index of growth.). Details: Plasmodium falciparum, 3D7.
Format: functional, organism-based

Row | Compound | XC50 [nM]
1 | C=CCOc1ccccc1CNCC(O)c1cccc(C(F)(F)F)c1 (centres undefined) | 845
2 | O=C(Cn1c(CCc2cccc(F)c2F)nc(=O)c2cccnc21)N(Cc1ccc(-c2ccc(C(F)(F)F)cc2)cc1)C1CCN(C2CCOCC2)CC1 | 828
3 | CN(CCN1CCC(c2c[nH]c3ccccc23)CC1)C(=O)OCCCCCNC(=O)/C=C/c1ccc(Cl)c(Cl)c1 | 678
4 | CC(C)(C)c1ccc(CN2CCC(NC(=O)c3ccc(-c4cccc(F)c4)s3)CC2)cc1 | 1090
5 | O=c1c2ccc(F)cc2sn1-c1ccc(Cl)cc1 | 1150
6 | CC(C)(C)CN1C(=O)C(c2ccccc2)(c2ccccc2)N=C1N | 515
7 | COc1cccc(C=NNc2cc(C)nc3c(OC)cccc23)c1 | 578
8 | CCn1c(C2CCN(CCC3CCN(C(=O)/C=C/c4ccc(Cl)c(Cl)c4)CC3)CC2)nc2ccccc21 | 1080
9 | CNC(=O)CC(=O)NCCc1ccc(Cl)cc1 | 811
10 | COC1(C)Oc2ccc3cccc([N+](=O)[O-])c3c2C1=O (centres undefined) | 635
11 | Cc1cc(=O)c2cc(-c3ccc(OC(F)(F)F)cc3)ccc2[nH]1 | 476
12 | CCCCCCCCc1nc(C)c(Br)c(O)c1Br | 178
13 | COc1cccc(Nc2nccc(NCC(O)c3cccc(C(F)(F)F)c3)n2)c1 (centres undefined) | 702
14 | O=c1[nH]c2c(cc1CNC1CCCCC1)c(-c1cccc(F)c1)nn2-c1ccccc1 | 945
15 | CC(CN1CCN(C)CC1)C(=O)Nc1ccc(-c2ccc(-c3nc4ccccc4[nH]3)cc2)cc1 (centres undefined) | 954
16 | CC(C)CNC(=O)c1cncc(-c2ccc(CNC3Cc4ccccc4C3)cc2)c1 | 698
17 | Cc1ccc(NC(=O)c2ccc(Cl)cc2)cc1-c1ccc(C(=O)Nc2ccncc2)cc1 | 779
18 | c1ccc(Oc2ccc(Nc3nncc4ccccc34)cc2)cc1 | 686
19 | CC1(C)C(N(O)C(=O)Nc2ccc(Cl)c(Cl)c2)N(c2ccc(Cl)c(Cl)c2)C(=O)N1CCc1ccccc1 (centres undefined) | 823
20 | O=C(Cc1ccc(NC(=O)c2ccc(O)c(-c3ccc(Cl)c(Cl)c3)c2)cc1)NCCc1ccc(Cl)c(Cl)c1 | 717
21 | COc1ccc2ccccc2c1CCCCN1CCN(CC(c2ccc(F)cc2)N2CCN(C(C)C)CC2)CC1 (centres undefined) | 809
22 | c1ccc(COc2ccc(Nc3ncnc4ccc(-c5ccc(CN6CCSCC6)o5)cc34)cc2)cc1 | 827
23 | CCCCCCCc1c(C)nc2ccccc2c1O | 206
24 | Cc1cc(Nc2cccc(C(F)(F)F)c2)nc(Nc2cccc(C(F)(F)F)c2)n1 | 644
25 | CC(=O)c1ccc(-c2cccc3c(CC(=O)Nc4ccc5nccc(N6CCN(C)CC6)c5c4)cccc23)cc1 | 498

Row | Compound | XC50 [nM]
26 | O=[N+]([O-])c1cccc(NC(=S)N2CCCN(Cc3ccc(F)cc3F)CC2)c1 | 831
27 | N#Cc1ccc(NC2(C(=O)N3CCN(c4cccc(Cl)c4)CC3)CC2)c2ccccc12 | 1150
28 | COc1cccc(-c2cnc(N)c(-c3nc4ccc(F)cc4[nH]3)c2)c1 | 850
29 | N=C(N)Nc1nc(-c2ccc(NC(=N)N3CCC[C@H]3CN3CCCC3)cc2)cs1 | 1110
30 | c1ccc2ncc(CNCCCCCCCCNCc3cnc4ccccc4c3)cc2c1 | 846
31 | CC1CN(c2ccc3occ(C(=O)Nc4ccc(-c5ccncc5)c(Cl)c4)c3c2)CC(C)N1C (centres undefined) | 855
32 | O=C(/C=C/c1ccc(Cl)c(Cl)c1)NCCCCCN1CCC(NC(=O)Nc2ccc(F)c(F)c2)CC1 | 842
33 | O=C(/C=C/c1ccc(Cl)c(Cl)c1)NCCCCCN1CCC(CCNC(=O)c2snnc2-c2ccccc2)CC1 | 822
34 | O=C(Nc1ccc(-c2ccc(-c3nc4ccccc4[nH]3)s2)cc1)Nc1ccc(F)c(F)c1F | 194
35 | Fc1ccc2[nH]c(-c3cccc(-c4ccc(CN5CCCCC5)cc4)c3)nc2c1 | 163
36 | Oc1ccccc1CN1CCCC(COC(c2ccc(F)cc2)c2ccc(F)cc2)C1 (centres undefined) | 775
37 | O=C(Nc1ccc(F)cc1F)NC1CCN(CCCCCNC(=O)C2CC2c2ccc(Cl)c(Cl)c2)CC1 (centres undefined) | 496
38 | COc1ccc(CNCc2ccccc2)cc1-c1ccc(S(=O)(=O)NCCN2CCCC2)s1 | 674
39 | COc1ccccc1CCNc1nc(C)cc(N[C@@H](CC(C)C)C(=O)Nc2ccccc2)n1 | 1280
40 | COc1ccccc1NC(=O)Nc1ccc(-c2ccc(-c3nc4cc(C(F)(F)F)ccc4[nH]3)cc2)cc1 | 544
41 | COc1ccc2ncc(F)c(CCN3C4CCC3CC(NCc3cc5c(cn3)OCS5)C4)c2n1 (centres undefined) | 923
42 | N=C(N)NCCN(Cc1ccccc1)c1ccc(Cl)cc1 | 48
43 | CC(C)(C(=O)Nc1ccc(C2CCC(NCC3CC3)CC2)c(Cl)c1)c1ccc(C(F)(F)F)cc1 (centres undefined) | 965
44 | CS(=O)(=O)Cc1ccc(Nc2ncc(Cl)c(Nc3cccnc3C(N)=O)n2)cc1 | 868
45 | N#Cc1ccc2c(c1)CCN(CCC1CCC(NC(=O)c3cc4cccc(Cl)c4[nH]3)CC1)CC2 (centres undefined) | 576
46 | CCC1CN2CCc3c([nH]c4ccccc34)C2CC1CC1NCCc2cc(OC)c(OC)cc21 (centres undefined) | 836
47 | O=C(C=Cc1ccc(Cl)c(Cl)c1)NCCCCCN1CCC(CCNC(=O)c2cccc3ccccc23)CC1 | 1590
48 | Nc1nccc2ccc(-c3ccnc(NCc4cccnc4)n3)cc12 | 462
49 | c1ccc(CN2CCC(NCc3ccc(-c4cncc5ccccc45)cc3)CC2)cc1 | 877
50 | O=C(NCC1CCC(CNCCCc2ccccc2)CC1)c1cc(Cl)cc(Cl)c1 (centres undefined) | 846

Row | Compound | XC50 [nM]
51 | Fc1ccc2[nH]c(-c3ccc(-c4ccc(CN5CCN(c6cnccn6)CC5)cc4)s3)nc2c1 | 617
52 | CCCNCc1ccc(-c2ccc(CN(Cc3ccc4c(c3)OCO4)C(=O)Cc3cccnc3)cc2)nc1 | 862
53 | CN1CCCC(CN2CCN(Cc3ccc(-c4ccc(-c5nc6cc(F)ccc6[nH]5)cc4)cc3)CC2)C1 (centres undefined) | 117
54 | Cc1c2ccncc2c(C)c2c1[nH]c1cc(Cc3ccccc3)c(O)cc12 | 148
55 | CC1C(c2cccc(Cl)c2)OCC(C)(C)N1C(=O)CCN1CCCCC1 (centres undefined) | 923
56 | CCOc1ccc(Cc2c(C)nc3nc(N)nc(N)c3c2C)cc1 | 1060
57 | O=C(c1cc(C(=O)Nc2ccccc2F)c(=O)n(-c2ccccc2F)c1)c1cc(Cl)ccc1O | 705
58 | NS(=O)(=O)c1ccccc1Nc1nc(Nc2ccc(N3CCOCC3)cc2)nc2c1CCC2 | 667
59 | O=C(Nc1ccccc1)N(Cc1ccc(-c2ccc(CNC3CCCC3)cc2)cc1)C1CCN(Cc2ccccc2)CC1 | 408
60 | CCCCN(CCCC)C(=O)CC(O)c1cc2c(Cl)cc(Cl)cc2c2cc(C(F)(F)F)ccc12 (centres undefined) | 1210
61 | COc1ccc(Nc2ncc3c(-c4cccc(NC(=O)Cc5ccncc5)c4)c[nH]c3n2)cc1OC | 1230
62 | COc1cccc(C(=O)Nc2sc3c(c2C(N)=O)CCCC3)c1OC | 932
63 | N#Cc1cc(C(=O)Nc2ccccc2)c(N)nc1SCC(=O)NC(c1ccccc1)c1cccs1 (centres undefined) | 605
64 | FC(F)(F)c1ccc2[nH]c(-c3ccc(-c4ccc(CNCC5CCCO5)cc4)s3)nc2c1 (centres undefined) | 158
65 | Nc1ccc(-c2nc3cc(Cc4ccc5[nH]c(-c6ccc(N)cc6)nc5c4)ccc3[nH]2)cc1 | 512
66 | Cc1cccc2nc(-c3ccc(-c4ccc(CNC(C)C)cc4)cc3)[nH]c12 | 676
67 | COc1cccc(C2=CC(c3ccccc3)n3ncc(C(=O)Nc4ccc(Cl)cc4)c3N2)c1 (centres undefined) | 1060
68 | CCCNc1nc(NCc2c(C)cccc2C)nc(NC(C)(C)C)n1 | 862
69 | CC(C)c1ccc(Nc2nc(NCCc3c[nH]cn3)nc(NCc3ccccc3)n2)cc1 | 687
70 | CC(C)CC1c2[nH]c3ccccc3c(=O)c2CN1C(=O)OC(C)(C)C (centres undefined) | 221
71 | CCCC[C@H](NC(=O)OC(C)(C)C)C(=O)Nc1ccc(Cc2ccc(NC(=O)[C@H](CCCC)NC(=O)OC(C)(C)C)cc2)cc1 | 733
72 | O=C(Nc1ccc(-c2cccc(-c3nc4cc(C(F)(F)F)ccc4[nH]3)c2)cc1)c1csnn1 | 802
73 | CN1CCC(NCCS(=O)(=O)c2cccc(Nc3ccc(-c4cccc(F)c4)cn3)c2)CC1 | 1360
74 | Cc1ccc(NC(=O)Nc2ccc(S(=O)(=O)c3ccc(NC(=O)Nc4ccc(C)c(Cl)c4)cc3)cc2)cc1Cl | 754
75 | Cc1cc(CNCCCCCCNCc2ccc(-c3ccccc3)cc2)ccc1O | 897

Row | Compound | XC50 [nM]
76 | CN(Cc1ccccc1)C(=O)c1nn(CCCN2CCC(N3CCCC3)CC2)cc1-c1ccc(Cl)c(Cl)c1 | 767
77 | O=C(Nc1ccc(-c2cccc(-c3nc4ccccc4[nH]3)c2)cc1)NC1CC1c1ccccc1 (centres undefined) | 630
78 | Cc1[nH]cnc1CSCCN/C(=N\C#N)NCCCCCCCCN/C(=N/C#N)NCCSCc1nc[nH]c1C | 1270
79 | COc1cccc(NC(=O)[C@H](C)n2c(=O)[nH]c3ccccc3c2=O)c1 | 764
80 | O=C(Nc1ccc(S(=O)(=O)N2CCCC2)cc1)c1cc(-c2cccnc2)nc2ccc(Cl)cc12 | 300
81 | CN1CCN(c2ccnc3ccc(NC(=O)Nc4c(Cl)cccc4Cl)cc23)CC1 | 877
82 | Cc1ccc(CCC(C)NCC(O)c2cccc(Cl)c2)cc1 (centres undefined) | 804
83 | CN1CCN(c2nsc3ccc(-c4ccc(NC(=O)Nc5cc(C(F)(F)F)ccc5F)cc4)cc23)CC1 | 245
84 | CC(=O)Nc1cccc(C(=O)Nc2cccc(-c3csc(-c4nc5ccccc5[nH]4)c3)c2)c1 | 181
85 | Cc1nc(C)c(-c2ccc(C(=O)c3ccc(Cl)cc3)cc2)c(O)c1Br | 810
86 | Cc1cccc2nc(-c3cccc(-c4cccc(NC(=O)c5csnn5)c4)c3)[nH]c12 | 304
87 | O=C(CNc1ccc(Cl)c(S(=O)(=O)N2CCCC2)c1)Nc1ccc(Br)cc1F | 321
88 | CC(C)CNCc1cccc(-c2ccccc2CNC2CCN(Cc3ccccc3)CC2)c1 | 579
89 | CC(C)(C)C(=O)Nc1ccc(C(=O)Nc2cccc(-c3nc4ccccc4[nH]3)c2)cc1 | 282
90 | CC(C)CCN1CCCN(Cc2ccc(C(=O)Nc3ccc(Cl)cc3)cc2)CC1 | 796
91 | CN1CCCC(OC(=O)c2ccccc2)C1 (centres undefined) | 756
92 | O=C(/C=C/c1ccc(Cl)c(Cl)c1)N1CCCC(CCCN2CCC(c3c[nH]c4ccccc34)CC2)C1 (centres undefined) | 1090
93 | Cc1cc(NC(=O)NCCN2CCC(NS(=O)(=O)c3ccccc3F)CC2)c2ccccc2n1 | 949
94 | CN1CCN(CCCCCNc2c3ccccc3nc3ccccc23)CC1 | 741
95 | Cc1ccc(CNC(=O)[C@H](CC(C)C)Nc2cc(C)nc(NCc3ccccc3C)n2)cc1 | 952
96 | CCCN(Cc1nnc(-c2cccs2)o1)C(=O)CSc1nnnn1-c1cc(C)cc(C)c1 | 500
97 | Cc1ccc2c(O)c([N+](=O)[O-])c(O)nc2c1 | 422
98 | CC(C)CCNc1nc(NCCCc2ccccc2)c2cc(O)ccc2n1 | 166
99 | Cn1nc(C(F)(F)F)c(-c2ccc(Br)cc2)c1NC(=O)Cc1ccccc1F | 157
